Measured values: patent US20250312499A1, “KISSPEPTIN RECEPTOR (KISS1R) TARGETED THERAPEUTICS AND USES THEREOF” (priority 2024, published 2025)
Numbered stars: 1 amine (or outer) side, 2 acyl side, 3 side chain; on linkers, the order of the positions; unused ones are H or OH. Square brackets hold non-standard residues; d marks the D form. Peptide text beside a SMILES is read from it. * marks the point of attachment. DOTA = O=C(O)CN1CCN(CC(=O)O)CCN(CC(=O)*)CCN(CC(=O)O)CC1; Ala(9-anthryl) = N[C@@H](Cc1c2ccccc2cc2ccccc12)C(=O)O; Gly(N-(3-F-4-Me-benzyl)) = Cc1ccc(CNCC(=O)*)cc1F; Propanoyl(3-(MeO(CH2CH2O)2)) = COCCOCCOCCC(=O)*; Bpa = N[C@@H](Cc1ccc(C(=O)c2ccccc2)cc1)C(=O)O; Api(1-amidino) = N=C(N)N1CCC(N)(C(=O)O)CC1; Hydrocinnamoyl(4-I) = O=C(CCc1ccc(I)cc1)*; Phe(3-F) = N[C@@H](Cc1cccc(F)c1)C(=O)O; 2Nal = N[C@@H](Cc1ccc2ccccc2c1)C(=O)O; d2Nal = N[C@H](Cc1ccc2ccccc2c1)C(=O)O; X1 = O=C(CN1CCC(N[*:1])CC1)[*:2]; dCya = N[C@H](CS(=O)(=O)O)C(=O)O; 4Pal = N[C@@H](Cc1ccncc1)C(=O)O; Cha = N[C@@H](CC1CCCCC1)C(=O)O; 4Amb = NCc1ccc(C(=O)O)cc1; Nle = CCCC[C@H](N)C(=O)O; Api = NC1(C(=O)O)CCNCC1; PEG2 = NCCOCCOCCC(=O)O; Ahx = NCCCCCC(=O)O; azaGly = NNC(=O)O; Sar = CNCC(=O)O

Target: human kisspeptin receptor (Homo sapiens (Human), UniProt Q969F8)
Sequence (Q969F8 whole entry): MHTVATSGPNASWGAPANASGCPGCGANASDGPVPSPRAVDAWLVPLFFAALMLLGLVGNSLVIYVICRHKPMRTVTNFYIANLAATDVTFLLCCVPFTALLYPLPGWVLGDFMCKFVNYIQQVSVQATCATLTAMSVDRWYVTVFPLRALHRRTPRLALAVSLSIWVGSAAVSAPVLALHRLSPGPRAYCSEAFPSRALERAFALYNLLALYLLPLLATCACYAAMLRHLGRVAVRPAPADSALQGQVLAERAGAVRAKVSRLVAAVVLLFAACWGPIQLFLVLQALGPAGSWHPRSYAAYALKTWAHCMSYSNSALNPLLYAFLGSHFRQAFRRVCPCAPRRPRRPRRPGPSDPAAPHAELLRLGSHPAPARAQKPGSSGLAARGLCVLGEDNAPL
Test: Human KISS1R binding assay (membrane competition binding)
Conditions: 90 min at room temperature; competition with 0.2 nM [125I]-metastin (45-54); Flp-In T-Rex 293 kisspeptin membranes; metal complexes nonradioactive Ga, In, Lu; read-out: hKiSSR Binding Ki (90 min)
Outline: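 Radioligand competition: 0.2 nM [125I]-metastin (45-54) displaced by test ligand (usually 0–10,000 nM) over 90 min at room temperature, pH 7.4 buffer with 0.1% BSA. Receptor source is crude membrane (5–10 μg) from tetracycline-induced Flp-In T-Rex 293 cells. Bound label filtered and counted; Ki from non-linear regression.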

SMILES | Ki [nM]
Cc1ccc(CNCC(=O)N2CCC(NC(=O)[C@H](CC(C)C)NC(=O)NNC(=O)[C@H](Cc3ccccc3)NC(=O)[C@@H](NC(=O)[C@H](CC(N)=O)NC(=O)CN3CCC(NC(=O)CN4CCN(CC(=O)O)CCN(CC(=O)O)CCN(CC(=O)O)CC4)CC3)[C@@H](C)O)(C(=O)N[C@@H](Cc3c[nH]c4ccccc34)C(N)=O)CC2)cc1F [Compound 158] ({DOTA}-[X1]NTF[azaGly]L[Api](Gly(N-(3-F-4-Me-benzyl)))W-NH2) | < 10
Cc1ccc(CNCC(=O)N2CCC(NC(=O)[C@H](CC(C)C)NC(=O)NNC(=O)[C@H](Cc3cccc(F)c3)NC(=O)[C@@H](NC(=O)[C@H](CC(N)=O)NC(=O)[C@H](CCCCN)NC(=O)[C@@H](Cc3ccc(O)cc3)NC(=O)CCCCCNC(=O)CN3CCN(CC(=O)O)CCN(CC(=O)O)CCN(CC(=O)O)CC3)[C@@H](C)O)(C(=O)N[C@@H](Cc3c[nH]c4ccccc34)C(N)=O)CC2)cc1F [Compound 27] ({DOTA-Ahx}-[dY]KNT[Phe(3-F)][azaGly]L[Api](Gly(N-(3-F-4-Me-benzyl)))W-NH2) | < 10
CC(C)C[C@H](NC(=O)NNC(=O)[C@H](Cc1ccccc1)NC(=O)[C@@H](NC(=O)[C@H](CC(N)=O)NC(=O)[C@@H](Cc1ccc2ccccc2c1)NC(=O)[C@@H](Cc1ccc(O)cc1)NC(=O)CCCCCNC(=O)CN1CCN(CC(=O)O)CCN(CC(=O)O)CCN(CC(=O)O)CC1)[C@@H](C)O)C(=O)NC1(C(=O)N[C@@H](Cc2ccc(O)cc2)C(N)=O)CCN(C(=N)N)CC1 [Compound 185] ({DOTA-Ahx}-[dY][d2Nal]NTF[azaGly]L[Api(1-amidino)]Y-NH2) | < 10
Cc1ccc(CNCC(=O)N2CCC(NC(=O)[C@H](CC(C)C)NC(=O)NNC(=O)[C@H](Cc3ccccc3)NC(=O)[C@@H](NC(=O)[C@H](CC(N)=O)NC(=O)[C@@H](CCC(=O)O)NC(=O)c3ccc(CNC(=O)CN4CCN(CC(=O)O)CCN(CC(=O)O)CCN(CC(=O)O)CC4)cc3)[C@@H](C)O)(C(=O)N[C@@H](Cc3ccc(O)cc3)C(N)=O)CC2)cc1F [Compound 206] ({DOTA-4Amb}-[dE]NTF[azaGly]L[Api](Gly(N-(3-F-4-Me-benzyl)))Y-NH2) | < 10
Cc1ccc(CNCC(=O)N2CCC(NC(=O)[C@H](CC(C)C)NC(=O)NNC(=O)[C@H](Cc3ccccc3)NC(=O)c3ccc(CNC(=O)[C@@H](CS(=O)(=O)O)NC(=O)[C@@H](CS(=O)(=O)O)NC(=O)CN4CCN(CC(=O)O)CCN(CC(=O)O)CCN(CC(=O)O)CC4)cc3)(C(=O)N[C@@H](Cc3c[nH]c4ccccc34)C(N)=O)CC2)cc1F [Compound 146] ({DOTA}-[dCya][dCya][4Amb]F[azaGly]L[Api](Gly(N-(3-F-4-Me-benzyl)))W-NH2) | < 10
CNCC(=O)N1CCC(NC(=O)[C@H](CC(C)C)NC(=O)NNC(=O)[C@H](Cc2ccccc2)NC(=O)[C@@H](NC(=O)[C@H](CC(N)=O)NC(=O)[C@H](Cc2ccc(C(=O)c3ccccc3)cc2)NC(=O)[C@@H](Cc2ccc(O)cc2)NC(=O)CCCCCNC(=O)CN2CCN(CC(=O)O)CCN(CC(=O)O)CCN(CC(=O)O)CC2)[C@@H](C)O)(C(=O)N[C@H](Cc2c[nH]c3ccccc23)C(N)=O)CC1 [Compound 345] ({DOTA-Ahx}-[dY][Bpa]NTF[azaGly]L[Api](Sar)[dW]-NH2) | < 10
CNCC(=O)N1CCC(NC(=O)[C@H](CC(C)C)NC(=O)NNC(=O)[C@H](Cc2ccccc2)NC(=O)[C@@H](NC(=O)[C@H](CC(N)=O)NC(=O)[C@H](Cc2c3ccccc3cc3ccccc23)NC(=O)[C@@H](Cc2ccc(O)cc2)NC(=O)CN2CCN(CC(=O)O)CCN(CC(=O)O)CCN(CC(=O)O)CC2)[C@@H](C)O)(C(=O)N[C@@H](Cc2ccncc2)C(N)=O)CC1 [Compound 202] ({DOTA}-[dY][Ala(9-anthryl)]NTF[azaGly]L[Api](Sar)[4Pal]-NH2) | 10 to 100
COCCOCCOCCC(=O)N[C@@H](CCCCNC(=O)CN1CCN(CC(=O)O)CCN(CC(=O)O)CCN(CC(=O)O)CC1)C(=O)N[C@@H](CC(N)=O)C(=O)N[C@H](C(=O)N[C@@H](Cc1ccccc1)C(=O)NNC(=O)N[C@@H](CC(C)C)C(=O)NC1(C(=O)N[C@@H](Cc2c[nH]c3ccccc23)C(N)=O)CCN(C(=N)N)CC1)[C@@H](C)O [Compound 264] ({Propanoyl(3-(MeO(CH2CH2O)2))}-K(DOTA)NTF[azaGly]L[Api(1-amidino)]W-NH2) | < 10
Cc1ccc(CNCC(=O)N2CCC(NC(=O)[C@H](CC(C)C)NC(=O)NNC(=O)[C@H](Cc3ccccc3)NC(=O)[C@@H](NC(=O)[C@H](CC(N)=O)NC(=O)c3ccc(CNC(=O)CN4CCN(CC(=O)O)CCN(CC(=O)O)CCN(CC(=O)O)CC4)cc3)[C@@H](C)O)(C(=O)N[C@@H](Cc3ccc(O)cc3)C(N)=O)CC2)cc1F [Compound 205] ({DOTA-4Amb}-NTF[azaGly]L[Api](Gly(N-(3-F-4-Me-benzyl)))Y-NH2) | < 10
CC(C)C[C@H](NC(=O)NNC(=O)[C@H](CC1CCCCC1)NC(=O)[C@@H](NC(=O)[C@H](CC(N)=O)NC(=O)[C@H](CCCCNC(=O)CN1CCN(CC(=O)O)CCN(CC(=O)O)CCN(CC(=O)O)CC1)NC(=O)[C@@H](Cc1ccc(O)cc1)NC(=O)CCOCCOCCNC(=O)CCc1ccc(I)cc1)[C@@H](C)O)C(=O)NC1(C(=O)N[C@@H](Cc2c[nH]c3ccccc23)C(N)=O)CCN(C(=N)N)CC1 [Compound 327] ({Hydrocinnamoyl(4-I)-PEG2}-[dY]K(DOTA)NT[Cha][azaGly]L[Api(1-amidino)]W-NH2) | < 10
CCCC[C@H](NC(=O)NNC(=O)[C@H](Cc1ccccc1)NC(=O)[C@@H](NC(=O)[C@H](CC(N)=O)NC(=O)[C@H](Cc1c2ccccc2cc2ccccc12)NC(=O)[C@@H](Cc1ccc(O)cc1)NC(=O)CN1CCN(CC(=O)O)CCN(CC(=O)O)CCN(CC(=O)O)CC1)[C@@H](C)O)C(=O)NC1(C(=O)N[C@@H](Cc2ccncc2)C(N)=O)CCN(C(=N)N)CC1 [Compound 123] ({DOTA}-[dY][Ala(9-anthryl)]NTF[azaGly][Nle][Api(1-amidino)][4Pal]-NH2) | > 100
Cc1ccc(CNCC(=O)N2CCC(NC(=O)[C@H](CC(C)C)NC(=O)NNC(=O)[C@H](Cc3ccccc3)NC(=O)CN3CCC(NC(=O)CN4CCN(CC(=O)O)CCN(CC(=O)O)CCN(CC(=O)O)CC4)CC3)(C(=O)N[C@@H](Cc3ccncc3)C(N)=O)CC2)cc1F [Compound 246] ({DOTA}-[X1]F[azaGly]L[Api](Gly(N-(3-F-4-Me-benzyl)))[4Pal]-NH2) | 10 to 100
CC(C)C[C@H](NC(=O)NNC(=O)[C@H](Cc1ccccc1)NC(=O)CCCCCNC(=O)CN1CCN(CC(=O)O)CCN(CC(=O)O)CCN(CC(=O)O)CC1)C(=O)NC1(C(=O)N[C@@H](Cc2c[nH]c3ccccc23)C(N)=O)CCN(C(=N)N)CC1 [Compound 5] ({DOTA-Ahx}-F[azaGly]L[Api(1-amidino)]W-NH2) | 10 to 100
CC(C)C[C@H](NC(=O)NNC(=O)[C@H](Cc1ccccc1)NC(=O)[C@@H](NC(=O)[C@H](CC(N)=O)NC(=O)[C@H](Cc1ccc(C(=O)c2ccccc2)cc1)NC(=O)[C@@H](Cc1ccc(O)cc1)NC(=O)CCCCCNC(=O)CN1CCN(CC(=O)O)CCN(CC(=O)O)CCN(CC(=O)O)CC1)[C@@H](C)O)C(=O)NC1(C(=O)N[C@@H](Cc2c[nH]c3ccccc23)C(N)=O)CCN(C(=N)N)CC1 [Compound 183] ({DOTA-Ahx}-[dY][Bpa]NTF[azaGly]L[Api(1-amidino)]W-NH2) | < 10
Cc1ccc(CNCC(=O)N2CCC(NC(=O)[C@H](CC(C)C)NC(=O)NNC(=O)[C@H](Cc3ccccc3)NC(=O)[C@@H](NC(=O)[C@H](CC(N)=O)NC(=O)[C@H](CCC(=O)O)NC(=O)CCCCCNC(=O)CN3CCN(CC(=O)O)CCN(CC(=O)O)CCN(CC(=O)O)CC3)[C@@H](C)O)(C(=O)N[C@@H](Cc3c[nH]c4ccccc34)C(N)=O)CC2)cc1F [Compound 238] ({DOTA-Ahx}-ENTF[azaGly]L[Api](Gly(N-(3-F-4-Me-benzyl)))W-NH2) | < 10
Cc1ccc(CNCC(=O)N2CCC(NC(=O)[C@H](CC(C)C)N[C@@H](CNC(=O)[C@H](Cc3ccccc3)NC(=O)CCCCCNC(=O)CN3CCN(CC(=O)O)CCN(CC(=O)O)CCN(CC(=O)O)CC3)C(F)(F)F)(C(=O)N[C@@H](Cc3c[nH]c4ccccc34)C(N)=O)CC2)cc1F [Compound 148] | 10 to 100
Cc1ccc(CNCC(=O)N2CCC(NC(=O)[C@H](CC(C)C)NC(=O)NNC(=O)[C@H](Cc3ccccc3)NC(=O)[C@H](C)NC(=O)[C@H](CC(N)=O)NC(=O)[C@@H](Cc3c[nH]c4ccccc34)NC(=O)[C@@H](Cc3ccc(O)cc3)NC(=O)CCCCCNC(=O)CN3CCN(CC(=O)O)CCN(CC(=O)O)CCN(CC(=O)O)CC3)(C(=O)N[C@@H](CC(C)C)C(N)=O)CC2)cc1F [Compound 113] ({DOTA-Ahx}-[dY][dW]NAF[azaGly]L[Api](Gly(N-(3-F-4-Me-benzyl)))L-NH2) | < 10
Cc1ccc(CNCC(=O)N2CCC(NC(=O)[C@H](CC(C)C)NC(=O)NNC(=O)[C@H](Cc3ccccc3)NC(=O)CCCCCNC(=O)[C@H](Cc3ccc4ccccc4c3)NC(=O)[C@@H](Cc3ccc(O)cc3)NC(=O)CN3CCN(CC(=O)O)CCN(CC(=O)O)CCN(CC(=O)O)CC3)(C(=O)N[C@@H](Cc3c[nH]c4ccccc34)C(N)=O)CC2)cc1F [Compound 285] ({DOTA}-[dY][2Nal][Ahx]F[azaGly]L[Api](Gly(N-(3-F-4-Me-benzyl)))W-NH2) | < 10
Cc1ccc(CNCC(=O)N2CCC(NC(=O)[C@H](CC(C)C)NC(=O)NNC(=O)[C@H](Cc3ccccc3)NC(=O)[C@@H](C)NC(=O)[C@@H](C)NC(=O)[C@@H](C)NC(=O)[C@@H](C)NC(=O)[C@@H](C)NC(=O)CCCCCNC(=O)CN3CCN(CC(=O)O)CCN(CC(=O)O)CCN(CC(=O)O)CC3)(C(=O)N[C@@H](Cc3c[nH]c4ccccc34)C(N)=O)CC2)cc1F [Compound 13] ({DOTA-Ahx}-[dA][dA][dA][dA][dA]F[azaGly]L[Api](Gly(N-(3-F-4-Me-benzyl)))W-NH2) | 10 to 100
